Measured values reported in US10196606B2, “Method of producing multipotent stem cells” (FLINDERS UNIVERSITY OF SOUTH AUSTRALIA, priority 2011, dated 2019).

What was measured:
[1] = system: mouse adult tail-tip fibroblasts (TTF); assay: Induction of SMINS cells / ALP-positive neurospheres from TTF; assay type: cell-based
Method: (§1) Mouse embryonic fibroblasts (MEF) and mouse adult tail-tip fibroblasts (TTF) were isolated from C57/BL6 mice as described previously^2. Both cell types (ie MEF and TTF) were cultured in MEF medium (Dulbecco's Modified Eagle Medium (DMEM; Invitrogen Corporation, Carlsbad, Calif., United States of America) containing 10% Fetal Bovine Serum (FBS; Thermo Fisher Scientific, Waltham, Mass., United. States of America), 50 units/ml penicillin and 50 μg/ml streptomycin (Invitrogen)). Native NS cells were cultured from mouse brain at E12-E14 as positive controls in neural stem (NS) cell media.
(§2) 35 mm tissue culture dishes were coated with feeder cells (fibroblasts cultured from mouse embryo and seeded at 1.4×10^5 cells per 35 mm tissue culture dish) before induction. The MEF (passage 3) or TTF were seeded at 1.4×10^5 per 35 mm feeder cell-coated dish. The cells were induced in 6 cycles. […] The cells were then cultured in SCM in the absence of the small molecules for the next two days. Then, the cycle was repeated 5 times. Next, the cells were passaged and suspended in a drop of […] containing at least 50 cells for two days. Finally, the cells were cultured in the neural stem (NS) cell medium (DMEM/F12 (Invitrogen) supplemented with B-27 (1:50; Gibco Inc, Billings, Mont., United States of America), 50 units ml^−1 penicillin, 50 μg ml^−1 streptomycin, 8 mM HEPES buffer, 20 ng ml^−1 epidermal growth factor (EGF), 10 ng ml^−1 basic fibroblast growth factor (bFGF) for two weeks.
(§3) ES culture medium (also referred to as SCM herein) was added to NS and SMINS cells overnight. Alkaline phosphatase staining was carried out according to the manufacturer's protocol (Hoffman-La Roche, Basel, Switzerland). For the immunofluorescence staining, cells were washed with phosphate buffered saline (PBS) and then fixed with 4% paraformaldehyde for 10 min. After washing twice with PBS, the cells were permeabilised with 0.1% Triton X-100 for 20 min. Cells were then washed twice and blocked in blocking buffer (a solution of PBS containing 1% FBS and 4% bovine serum albumin (BSA)) for 1 hour. […]

[2] = system: mouse embryonic fibroblasts (MEF); assay: Induction of SMINS cells / ALP-positive neurospheres from MEF, 6 induction cycles; assay type: cell-based; conditions: withdrawal of individual small molecules from the combination
Method: as §1, §2, §3

[3] = system: human umbilical cord fibroblast (HUCF) cells; assay: Induction of ALP positive colonies from HUCF, single induction cycle; assay type: cell-based; conditions: one induction cycle, 7 days in NSC media
Method: At passage 17, HUCF cells were labelled with an anti-p75NTR antibody and underwent cell sorting for p75-NTR expression as described below, p75NTR-negative cells were used for all experiments of the induction by small molecules described below. Two hours before induction, p75-NTR^− HUCF were seeded at 1.4×10^5 per 35 mm tissue culture dishes coated with poly-D-lysine. On Day 1, the cells were induced in human induced pluripotent stem cell culture medium (HIPS) (DMEM/F12 supplemented with 25% KSR (Invitrogen), 1% non-essential amino acids (Invitrogen), 1% L-glutamine (Invitrogen), 50 units ml-1 penicillin, 50 μg ml-1 streptomycin, 10 ng ml-1 bFGF, and 0.1 mM β-mercaptoethanol (Invitrogen)) containing various combinations of small molecules as described below. The small molecules were used at the following concentrations: 0.5 μM PD0325901, 0.5 μM PD184352 (Millipore Merck), 72 nM U0216 (Millipore Merck), 0.4 μM RG108. […] 5-aza-2′-deoxycytidine (Millipore Merck) and 1 μM BIX01294. On day 2, the media was replaced with stem cell media (SCM) in the absence of small molecules as described in Example 1, except where indicated, the media was HIPS media in the absence of small molecules. On day 4, the cells were dissociated using 1 ml (1×) Tryple-E enzyme (Invitrogen) and seeded on 35 mm Petri dish with Neural Stem Cell (NSC) media (Neurobasal Medium (Invitrogen) supplemented with 10 ng/m bFGF and EGF with 50 units/ml penicillin, 50 μg/ml streptomycin). Colonies were maintained in NSC media for 7 days to induce neural stem cells unless stated otherwise.
Cells were induced with a combination of small molecules as described above and stained with ALP as described in Example 1, and examined using phase contrast microscopy.

ALK6 = ALK6 (Homo sapiens, UniProt O00238); conditions: cited from earlier work
Sequence of ALK6 (O00238 14-502): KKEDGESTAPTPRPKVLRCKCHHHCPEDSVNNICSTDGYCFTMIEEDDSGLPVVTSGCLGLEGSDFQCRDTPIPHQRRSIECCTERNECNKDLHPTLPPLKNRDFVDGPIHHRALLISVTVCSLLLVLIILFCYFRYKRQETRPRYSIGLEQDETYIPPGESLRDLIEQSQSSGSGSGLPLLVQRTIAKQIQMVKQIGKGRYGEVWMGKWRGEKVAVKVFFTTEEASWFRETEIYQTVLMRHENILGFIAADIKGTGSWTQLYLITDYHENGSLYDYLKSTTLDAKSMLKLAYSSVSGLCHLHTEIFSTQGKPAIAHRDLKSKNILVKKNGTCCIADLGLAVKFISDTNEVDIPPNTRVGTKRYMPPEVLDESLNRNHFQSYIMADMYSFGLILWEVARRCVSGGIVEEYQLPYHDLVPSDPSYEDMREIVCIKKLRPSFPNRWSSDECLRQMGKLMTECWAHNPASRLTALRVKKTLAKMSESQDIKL

ALK1 = ALK1 (Homo sapiens, UniProt P37023); conditions: cited from earlier work
Sequence of ALK1 (P37023 22-503, species assumed): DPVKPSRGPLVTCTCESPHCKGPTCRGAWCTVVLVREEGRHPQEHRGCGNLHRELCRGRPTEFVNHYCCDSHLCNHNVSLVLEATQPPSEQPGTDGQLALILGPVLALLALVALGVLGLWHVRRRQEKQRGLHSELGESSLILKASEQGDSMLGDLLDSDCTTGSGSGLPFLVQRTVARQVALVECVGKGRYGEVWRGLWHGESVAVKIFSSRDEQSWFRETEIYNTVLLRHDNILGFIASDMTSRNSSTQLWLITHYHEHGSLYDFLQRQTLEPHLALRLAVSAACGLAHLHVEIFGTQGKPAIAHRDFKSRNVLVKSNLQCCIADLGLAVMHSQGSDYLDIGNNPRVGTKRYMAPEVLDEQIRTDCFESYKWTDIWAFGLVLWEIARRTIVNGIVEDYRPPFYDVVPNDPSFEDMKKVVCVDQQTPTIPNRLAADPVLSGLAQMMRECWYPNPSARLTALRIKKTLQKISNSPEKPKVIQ

ALK4 = target: T1, ALK4 (Homo sapiens, UniProt P36896); conditions: cited from earlier work
T1 sequence (P36896 24-505): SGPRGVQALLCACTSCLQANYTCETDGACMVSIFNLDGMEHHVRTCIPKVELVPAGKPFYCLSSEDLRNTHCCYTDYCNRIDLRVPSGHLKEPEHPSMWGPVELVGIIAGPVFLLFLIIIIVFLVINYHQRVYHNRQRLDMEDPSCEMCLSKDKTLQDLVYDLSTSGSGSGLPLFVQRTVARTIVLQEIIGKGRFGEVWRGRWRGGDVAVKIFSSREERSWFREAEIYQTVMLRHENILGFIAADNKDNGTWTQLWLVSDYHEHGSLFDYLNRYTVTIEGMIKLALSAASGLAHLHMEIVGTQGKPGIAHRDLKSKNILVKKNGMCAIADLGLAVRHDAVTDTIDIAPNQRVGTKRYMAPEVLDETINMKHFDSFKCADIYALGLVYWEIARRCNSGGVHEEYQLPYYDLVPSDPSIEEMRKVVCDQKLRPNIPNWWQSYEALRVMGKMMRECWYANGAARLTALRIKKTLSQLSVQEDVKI

ALK3 = ALK3 (Homo sapiens, UniProt P36894); conditions: cited from earlier work
Sequence of ALK3 (P36894 24-532): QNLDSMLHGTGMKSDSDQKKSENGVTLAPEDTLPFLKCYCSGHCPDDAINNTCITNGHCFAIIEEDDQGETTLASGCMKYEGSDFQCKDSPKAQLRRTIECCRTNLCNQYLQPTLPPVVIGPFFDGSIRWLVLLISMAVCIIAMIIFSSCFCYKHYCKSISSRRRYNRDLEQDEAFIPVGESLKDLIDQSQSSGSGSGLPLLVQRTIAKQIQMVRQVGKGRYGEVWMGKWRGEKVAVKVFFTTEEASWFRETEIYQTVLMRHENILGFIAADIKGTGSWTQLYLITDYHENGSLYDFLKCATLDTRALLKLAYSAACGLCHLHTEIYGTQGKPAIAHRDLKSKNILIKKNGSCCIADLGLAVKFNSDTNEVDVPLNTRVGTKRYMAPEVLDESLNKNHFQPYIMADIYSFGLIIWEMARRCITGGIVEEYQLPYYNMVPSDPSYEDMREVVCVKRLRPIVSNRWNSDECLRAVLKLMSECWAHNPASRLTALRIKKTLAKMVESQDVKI

ALK2 = target: T2, ALK2 (Homo sapiens, UniProt Q04771); conditions: cited from earlier work
T2 sequence (Q04771 21-509): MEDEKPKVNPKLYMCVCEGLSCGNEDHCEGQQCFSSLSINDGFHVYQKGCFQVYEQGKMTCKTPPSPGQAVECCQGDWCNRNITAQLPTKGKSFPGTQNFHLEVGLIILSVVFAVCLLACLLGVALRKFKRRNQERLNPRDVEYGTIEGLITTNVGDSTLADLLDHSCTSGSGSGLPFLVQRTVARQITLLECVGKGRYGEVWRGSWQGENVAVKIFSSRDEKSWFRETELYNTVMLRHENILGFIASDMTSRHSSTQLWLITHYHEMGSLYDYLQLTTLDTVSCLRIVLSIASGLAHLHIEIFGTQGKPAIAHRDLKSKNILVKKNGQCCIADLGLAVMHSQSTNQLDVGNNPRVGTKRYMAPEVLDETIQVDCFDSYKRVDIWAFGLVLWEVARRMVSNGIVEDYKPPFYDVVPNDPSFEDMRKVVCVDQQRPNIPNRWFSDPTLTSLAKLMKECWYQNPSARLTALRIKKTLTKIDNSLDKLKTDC

[4] = system: human umbilical cord fibroblast (HUCF) cells; assay: Immunocytochemistry of cells induced from HUCF; assay type: cell-based
Method: Cells were induced with small molecules (BIX0124 alone or BIX0125 and RG108 in combination) as described above, with cells cultured in HIPS media at Days 2 and 3. Cells were cultured in NSC media for 0, 2 or 6 days as detailed below. Prior to immunofluorescence staining, cells were dissociated with Tryple-E enzyme as described above, and then incubated overnight at low density on poly-D-lysine coated coverslips in HIPS media prior to immunofluorescence staining.
Cells were then washed with PBS and then fixed with 4% paraformaldehyde for 10 min. After washing twice with PBS, cells were permeabilised with 0.1% Triton X-100 for 20 min. Cells were then washed twice and blocked in blocking buffer (a solution of PBS containing 1% FBS and 4% BSA) for 1 hour. Primary antibodies were diluted in blocking buffer in the following dilutions: anti-Sox2 (Millipore, 1:200, mouse), anti-SSEA-1 (Santa Cruz Biotechnology, 1:200, mouse), anti-glial fibrillary acidic protein (GFAP; Dako, 1:400, rabbit), anti-Map2 (Osenses, 1:1000, rabbit), anti-Olig2 (Osenses, 1:1000, rabbit), anti-Alpha-tubulin (Sigma, 1:1000, mouse), anti-neural/glial 2 (Abeam, 1:200), anti-nestin (DHSB, 1:1000), anti-Tuj1 Sigma, 1:300 and applied to the cells for 1 hour at room temperature or overnight at 4° C. Cells were washed three times with PBS and then secondary fluorescent antibodies (1:1000, Cy3 or Alexa-488) and counterstain with 10 μg/ml DAPI were applied for 1 hour at room temperature.
In one experiment, HUCF cells were induced as follows: At passage 17, HUCF cells were negatively selected for p75-NTR and then induced using BIX01294 alone in HIPS media for one day and HIPS media (no small molecules) for two days followed by culture in NSC media for 6 days. Meanwhile control HUCF cells at passage 17 were negatively selected for p75-NTR cells, and then passaged another 5 times. Cells were then stained with mouse anti-p75-NTR-FITC (Biosensis, 1:6, mouse) and counterstained with DAPI as described above.

[5] = system: human umbilical cord fibroblast (HUCF) cells; assay: RT-PCR of cells induced from HUCF; assay type: cell-based; conditions: immediately after induction, prior to culture in NSC media
Method: mRNA was extracted from cells induced using BIX01294 and RG108 in combination or BIX01294 alone. A cell lysate from SKSY5Y cells (a neuroblastoma cell line) was used as a positive control, and HUCF cells at passage 17 following p75-NTR negative selection was used as a negative control. RT-PCR was performed as described in Example 1 for expression of typical neural stem cell genes GFAP, Sox2, Olig2, Nestin, and pluripotent stem cell genes Oct4 and Nanog, and loading control gene GAPDH using the primers described in Example 1.

cell reprogramming = conditions: cited from earlier work

SMILES: O=C(O)[C@H](Cc1c[nH]c2ccccc12)N1C(=O)c2ccccc2C1=O [RG108, 1H-Indole-3-propanoic acid, α-(1,3-dihydro-1,3-dioxo-2H-isoindol-2-yl)-, (αS)—]
- ALP-positive neurosphere produced from TTF [1]: No
- essential for generation of SMINS-MEF cells [2]: required for the induction

SMILES: N#CC(=C(/N)Sc1ccccc1N)/C(C#N)=C(/N)Sc1ccccc1N [U0216]
- induction of ALP positive colonies from HUCF [3]: induced ALP positive colonies

SMILES: Cc1cccc(-c2nn(C(=S)Nc3ccccc3)cc2-c2ccnc3ccccc23)n1 [A83-01, 3-(6-Methyl-2-pyridinyl)-N-phenyl-4-(4-quinolinyl)-1H-pyrazole-1-carbothioamide]
- inhibition of ALK6 (ALK6): only weakly inhibits
- inhibition of ALK1 (ALK1): only weakly inhibits
- IC50 (ALK4): 0.012 µM
- inhibition of ALK3 (ALK3): only weakly inhibits
- inhibition of ALK2 (ALK2): only weakly inhibits

SMILES: COc1cc2nc(N3CCCN(C)CC3)nc(NC3CCN(Cc4ccccc4)CC3)c2cc1OC.Cl.Cl.Cl.O [BIX01294, 2-(hexahydro-4-methyl-1H-1,4-diazepin-1-yl)-6,7-dimethoxy-N-[1-(phenylmethyl)-4-piperidinyl]-4-quinazolinamine trihydrochloride hydrate]
- expression of neural stem cell marker nestin ([4]; 6 days in NSC media): additionally express the neural stem cell marker nestin
- p75-NTR staining versus control p75-NTR negative HUCF ([4]; 6 days in NSC media): marked upregulation
- expression of NG2, Olig2, GFAP and Tuj1 ([4]; after culture in NSC media): some BIX01294 induced cells express
- expression of Sox2 and SSEA-1 (immunofluorescence) ([4]; culture in NSC media for 0 or 6 days): clearly expressed Sox2 and SSEA-1
- ALP-positive neurosphere produced from TTF [1]: No
- essential for generation of SMINS-MEF cells [2]: required for the induction
- Sox2 expression (RT-PCR) [5]: expressed Sox2 immediately after induction

SMILES: O=C(NOCC1CC1)c1ccc(F)c(F)c1Nc1ccc(I)cc1Cl [PD184352, 2-(2-chloro-4-iodo-phenylamino)-N-cyclopropylmethoxy-3,4-difluoro-benzamide]
- induction of ALP positive colonies from HUCF [3]: induced ALP positive colonies

SMILES: O=C(NOCC(O)CO)c1ccc(F)c(F)c1Nc1ccc(I)cc1F (centres unmarked) [PD325901, N-(2,3-dihydroxy-propoxy)-3,4-difluoro-2-(2-fluoro-4-iodo-phenylamino)-benzamide]
- induction of ALP positive colonies from HUCF [3]: induced ALP positive colonies
- ALP-positive neurosphere produced from TTF [1]: Yes
- essential for generation of SMINS-MEF cells [2]: required for the induction

SMILES: CCCC(CCC)C(=O)O [valproic acid]
- improvement of the efficiency of cell reprogramming by some induction processes (cell reprogramming): at least 100 fold
